# Reference: US12036228B2, “Treatment of seizure disorders” (Shackelford Pharma Inc., priority 2022, dated 2024)
# Tests used:
# Format in all cases: in vivo
# [1] = system: seizures / EEG abnormalities in human patient; test: Example 8 pediatric patient with atonic seizures, myoclonic seizures and Doose syndrome (24 hour EEG, seizures)
# Method: They had continued to experience several seizures per day of all types despite multiple combination regimens of prescription anti-seizure medications and a trial of THC-A transdermal patch and CBD (Charlotte's Web) oral tincture and CBD transdermal patches up until the day they were first evaluated for cannabinoid treatment (age 4.5 on Mar. 8, 2016). […] They were then prescribed 1 mg oral THC tincture three times per day. On Mar. 8, 2018, the patient returned for follow-up where it was learned that all cannabinoids had been discontinued. […] The THC-A transdermal patch was restarted at 1.875 mg/day with a reduction in EEG abnormalities to 400/24 hours. Oral THC 2.5 mg BID was then restarted with a further reduction in EEG abnormalities to 20/24 hours. […] Due to the significant reduction in brain pre-seizure activity after restarting THC and concerns that there are effective dosage variations among transdermal products, the patient was then prescribed oral THC 2.5 mg BID which they continue to take.
# [2] = system: seizures in human patient; test: Example 8 pediatric patient with Lennox-Gastaut; conditions: THC 8 mg BID (16 mg TDD) orally in combination with Epidiolex (CBD) 150 mg BID
# Method: The other pediatric patient was a patient, diagnosed with Lennox-Gastout in 2008, suffered from multiple seizure types and went through corpus callosotomy in January 2017 after failure of vagus nerve stimulation (VNS). […] The patient was first evaluated for cannabinoid treatment on Aug. 3, 2017, and was prescribed CBD with 0.3% THC 10 mg BID (Charlotte's Web). […] After discharge from the hospital, the patient's GTCs worsened and were no longer responsive to felbamate. […] This patient was 35.45 kg, so the CBD daily dose was 3.3 mg/kg (well below the therapeutic dosages for Epidiolex). However patient was still having frequent tonic, myoclonic, and GTC seizures per day. […] When the dose was 300 mg Epidiolex daily, the patient was 40.5 kg, so the CBD daily dose was 7.4 mg/kg (below the therapeutic dosages for Epidiolex for Lennox Gastaut Syndrome).
# [3] = system: GTC seizures in human patient; test: Example 2 human patient, Dravet syndrome
# Method: A patient first started having seizures and was subsequently diagnosed with Dravet syndrome. Initially, they were having clusters of 2 GTC seizures a day for 2 days occurring about every 2 weeks. Keppra was ineffective as were other combinations of anti-epileptic drugs. Several different combinations were tried and by the time they were first seen for evaluation for cannabinoid treatment on Aug. 7, 2014, they were taking Depakote 125 mg BID, Clonazepam 0.5 mg TID, and Versed/Diastat as needed for rescue but was still having clusters of GTC seizures every 2 weeks. The patient had started a CBD product on Jul. 3, 2014 (product analysis: 11.2 mg CBD/gm with 0.38 mg THC/gm at a dose of 0.7 mL TID (unknown concentration per mL), but seizures still were occurring irregularly—primarily GTC occurring in clusters of 1-2 per day every two weeks, rare atonic, and occasional eye-flutters.
# [4] = system: seizures in human patient; test: Example 3 human patient, GTC and complex partial seizures
# Excerpt: A patient first started having GTC and complex partial (CP) seizures. […] The patient was referred for evaluation for initiation of cannabinoid/THC treatment in March 2014.
# [5] = system: GTC seizures in human patient; test: Example 4 human patient, idiopathic GTC seizures
# Excerpt: A person's first evaluation for cannabinboid therapy was on Feb. 16, 2010. […] Initially in 2010, the patient was smoking cannabis in the day and taking a THC cannabis extract at night orally.
# [6] = system: GTC seizures in human patient; test: Example 5 human patient, GTC seizures caused by cerebral angioma
# Excerpt: A patient first started having GTC seizures in 2007 which were caused by a cerebral angioma. […] The freedom from seizures allowed them to stop taking Lamictal, and the resolution of the medication side effects allowed them to return to work.
# [7] = smoking cannabis during the day and 12.5 mg of THC orally at bedtime
smiles,measurement,setting,value
"CCCCCc1cc(O)c2c(c1)OC(C)(C)[C@@H]1CCC(C)=C[C@@H]21 [THC, Delta-9-tetrahydrocannabinol]",EEG abnormalities,[1]; Oral THC 2.5 mg BID restarted after THC-A patch,20 /24 hours
same,observable seizures,[1]; Oral THC 2.5 mg BID with THC-A patch,no observable seizures
same,effect on seizures,[2],further reduction in seizure frequency and duration
same,cognitive function,[3]; 20 mg CBD+20 mg THC TID regimen,significantly better
same,seizure-free duration,[3]; Depakote+Onfi+stiripentol+5 mg THC HS,15 months
same,seizures after THC added back,"[3]; THC 5 mg HS, CBD removed",improvement in the number and severity of all seizure types
same,behavioral effect when used as rescue medication,[3]; THC applied to the oral mucosa,no behavioral compromise
same,termination of seizures as rescue medication,"[3]; THC applied to the oral mucosa, 6 non-convulsive seizures",rapidly terminated
same,seizures when THC was dropped from the regimen,"[3]; patient not receiving THC, Apr. 25 to Dec. 3, 2017",frequency and severity of all seizure types increased
same,effect as rescue medication,[3]; two drops THC to gums,rapid effect
same,seizure status,[4]; 20 milligrams THC cannabis extract liquid orally in the morning and 5 mg THC content pill in the evening,remained seizure free
same,seizure status,[4]; inhaled 16 mg cannabis wax in the morning and oral 20 milligrams THC cannabis extract liquid at night,seizure free
same,seizures after resuming regimen,[5]; cannabis smoking during the day and THC cannabis extract orally at night,the seizures stopped
same,seizure control,"[5]; inhaled and orally administered THC cannabis products, no anti-epileptic drugs",well controlled
same,seizure status,[5]; [7],had no seizures
same,seizure-free period,[5]; [7],4 years
same,seizure status,[6]; only orally administered THC-infused confections and drinks,still seizure-free
same,seizure status,[6]; orally administered THC reduced from 150 milligrams to 70 mg at bedtime,continued seizure freedom
